Experimental data: patent USRE37410E, “Controlled local delivery of chemotherapeutic agents for treating solid tumors” (priority 1999, dated 2001)
Like-named read-outs stand apart in the source and are kept apart here.

What was measured:
[1] = In vitro release of paclitaxel from PCPP-SA (20:80) polymer discs; type: physicochemical
Description: Solid paclitaxel, obtained from Napro Biotherapeutics (Boulder, Colo.) or from the National Cancer Institute (Bethesda, Md.), was mixed with poly[bis(p-carboxyphenoxy)propane-sebacic acid] copolymer (PCPP-SA) (20:80) synthesized according to the method of Domb, A. J., and R. Langer (J. Polym. Sci. 25:3373-3386 (1987)), the teachings of which are incorporated herein by reference, to give a mixture containing 0, 20, 30, or 40% paclitaxel by weight. The paclitaxel-polymer mixture was dissolved in methylene chloride (Fluka, Switzerland) to give a 10% solution (w:v). The solvent was evaporated with a nitrogen stream to yield a dry powder. […]
The efficiency of the delivery of paclitaxel incorporated into a biodegradable polymer into the surrounding medium was assessed in vitro as follows. […]
Protocol. […] The releasing medium was replaced at specified times during the 45-day (1000 hour) incubation period, and the recovered solutions were analyzed by scintillation counting and high pressure liquid chromatography (HPLC). […] Radioactive analysis to quantify the amount of paclitaxel release was done by mixing 200 μl of the releasing buffer solution with 4 ml of a scintillation mixture composed of toluene and Lumax (Landgraat, The Netherlands) scintillation mixture in a 2:1 volume ratio. This solution was counted on a 1211 Rack β-liquid scintillation counter (LKB-Wallac OY, Finland). […]

[2] = system: H80; type: cell-based; conditions: Homo sapiens; continuous 6-8 days exposure; read-out: LD90 (the source's name)
Description: (§1) Cell culture. Tumor sensitivity to paclitaxel was measured by the clonogenic assay described by Rosenblum, et al., Cancer 41:2305-2314 (1978) and Salcman, et al., Neurosurgery 29:526-531 (1991) with rat glioma (9L, F98), human glioma (H80, U87, U373), and human medulloblastoma (D324) cell lines. Cells were grown and propagated in minimum essential medium (MEM) supplemented with 10% fetal bovine serum, L-glutamine, penicillin, and streptomycin and incubated at 37° C. in an atmosphere containing 5% CO2. At the start of each assay, 600 tumor cells in 2 ml of medium were plated on Falcon 6-well tissue-culture plates (Becton-Dickenson, Lincoln Park, N.J.). After incubating for 24 h, the medium was removed from the places and replaced with 2 ml of medium containing paclitaxel and 0.1% dimethylsulfoxide (DMSO). The treatment solutions were prepared as described by Roytta et al., Prostate 11:95-106 (1987). The paclitaxel treatment solution was then either replaced with fresh paclitaxel-free media containing 0.1% DMSO after 1 or 24 h or was left on the places for the 6- to 8-day incubation period. […] The colonies on each plate were counted and the result was expressed as a percentage of the colonies formed on control plates not exposed to paclitaxel. […] Graphs were prepared and analyzed using Cricket Graph v. […]

[3] = system: U87; type: cell-based; conditions: Homo sapiens, U-87 MG; continuous 6-8 days exposure; read-out: LD90 (the source's name)
Description: as §1

[4] = system: U373; test: cells; conditions: Homo sapiens, U373 MG, read-out: ID90

For `CC(=O)O[C@H]1C(=O)[C@@]2(C)[C@H]([C@H](OC(=O)c3ccccc3)[C@]3(O)C[C@H](OC(=O)[C@H](O)[C@@H](NC(=O)c4ccccc4)c4ccccc4)C(C)=C1C3(C)C)[C@]1(OC(C)=O)CO[C@@H]1C[C@@H]2O` [paclitaxel], the release profile ([1]; each of the polymer loadings, phosphate buffer pH 7.4, 37° C) was “released biphasically from the polymer, with an initial burst phase followed by a slower constant release phase”, the “identity of released paclitaxel by HPLC” value ([1]; released into buffer) was “corresponded with intact paclitaxel” and the IC90 [2] was 19 nM. The IC90 [3] was 9.1 nM, the IC90 ([4]; 1 h) was 280 nM and the IC90 ([4]; 24 h) was 29 nM. It also gave an IC90 [4] of 7.2 nM.
